Results taken from patent EP1976513B1 (priority 2006, dated 2007).
Where two headings read alike, the source gives them in different places.

Assays:
[1] = biological target: Norepinephrine Transporter (NET) Sites in Mouse Brain (Mus musculus, UniProt O55192); conditions: PO; for % Transporter Occupancy, NET: 60 minutes after treatment, vs vehicle; for Mean Specific Binding (dpm) ± S.E.M., NET: mice sacrificed 60 minutes after treatment, cortex
[2] = system: mice; assay: Mouse locomotor activity; assay type: in vivo; conditions: PO
Method: In order to ensure effects of the compounds on immobility time were not related to a general stimulant effect on baseline motor activity, locomotor activity was assessed using photocell monitored cages (Med-Associates Inc.). Each test chamber was equipped with infrared photocell beams to measure movement of the animals. Horizontal and vertical activity were measured
Rats or mice were pretreated with vehicle or test compounds and placed back in home cage, following which they will be individually placed in locomotor cages and activity was monitored in 5 minute intervals for up to 60 min.
Data were analyzed by one way analysis of variance (ANOVA) followed by post-hoc comparisons where appropriate. An effect was considered significant if p < 0.05. Data are represented as the mean and standard error to the mean (s.e.m).

[3] = biological target: human serotonin reuptake transporter (Homo sapiens, UniProt P31645); assay: cell-based
[4] = biological target: T1, DA Transporter (DAT) Sites in Mouse Brain (Mus musculus, UniProt Q61327); assay: Ex vivo [3H] WIN 35428 binding after oral dosing; set-up: species or system C57BL/6 mice; conditions: for % Transporter Occupancy, DAT: 60 minutes after treatment, vs vehicle; for Mean Specific Binding (dpm) ± S.E.M., DAT: mice sacrificed 60 minutes after treatment, striatum
T1 construct: Striatum was used to determine occupancy of DA transporter sites; from tissue; host or cells: C57BL/6 mouse striatum homogenate

[5] = biological target: T2, 5-HT Transporter (SERT) Sites in Mouse Brain (Mus musculus, UniProt Q60857); assay: Ex vivo [3H] citalopram binding after oral dosing; set-up: species or system C57BL/6 mice; conditions: for % Transporter Occupancy, SERT: 60 minutes after treatment, vs vehicle; for Mean Specific Binding (dpm) ± S.E.M., SERT: mice sacrificed 60 minutes after treatment, cortex
T2 construct: Whole brains were removed and cortex and striata dissected out; from tissue; host or cells: C57BL/6 mouse frontal cortex homogenate

[6] = biological target: T3, human dopamine reuptake transporter (Homo sapiens, UniProt Q01959); assay: cell-based
T3 construct: expressed in transfected cells; host or cells: CHO-K1 or HEK293

[7] = recombinant human serotonin transporter (SERT), read-out: Human IC50 (nM) hSERT
[8] = recombinant human dopamine transporter (DAT), read-out: Human IC50 (nM) hDAT
[9] = Human IC50 (nM) hSERT, recombinant human serotonin transporter (SERT)
[10] = read-out: Human IC50 (nM) hSERT

T1 sequence (Q61327 whole entry): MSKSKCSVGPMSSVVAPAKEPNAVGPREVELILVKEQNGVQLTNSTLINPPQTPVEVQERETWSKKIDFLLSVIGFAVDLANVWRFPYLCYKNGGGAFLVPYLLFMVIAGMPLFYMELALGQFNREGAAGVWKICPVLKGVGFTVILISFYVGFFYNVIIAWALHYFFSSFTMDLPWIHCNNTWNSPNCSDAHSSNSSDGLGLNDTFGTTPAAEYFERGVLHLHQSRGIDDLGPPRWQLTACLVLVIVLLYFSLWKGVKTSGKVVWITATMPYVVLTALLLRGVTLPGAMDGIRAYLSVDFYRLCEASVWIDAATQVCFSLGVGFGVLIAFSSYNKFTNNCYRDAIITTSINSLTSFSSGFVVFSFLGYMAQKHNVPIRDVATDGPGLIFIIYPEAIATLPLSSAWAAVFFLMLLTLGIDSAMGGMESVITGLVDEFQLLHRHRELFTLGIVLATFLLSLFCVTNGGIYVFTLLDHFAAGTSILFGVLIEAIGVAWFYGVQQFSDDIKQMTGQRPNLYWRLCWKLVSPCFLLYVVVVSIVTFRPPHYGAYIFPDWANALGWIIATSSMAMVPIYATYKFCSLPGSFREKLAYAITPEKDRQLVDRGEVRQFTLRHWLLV
T2 sequence (Q60857 whole entry): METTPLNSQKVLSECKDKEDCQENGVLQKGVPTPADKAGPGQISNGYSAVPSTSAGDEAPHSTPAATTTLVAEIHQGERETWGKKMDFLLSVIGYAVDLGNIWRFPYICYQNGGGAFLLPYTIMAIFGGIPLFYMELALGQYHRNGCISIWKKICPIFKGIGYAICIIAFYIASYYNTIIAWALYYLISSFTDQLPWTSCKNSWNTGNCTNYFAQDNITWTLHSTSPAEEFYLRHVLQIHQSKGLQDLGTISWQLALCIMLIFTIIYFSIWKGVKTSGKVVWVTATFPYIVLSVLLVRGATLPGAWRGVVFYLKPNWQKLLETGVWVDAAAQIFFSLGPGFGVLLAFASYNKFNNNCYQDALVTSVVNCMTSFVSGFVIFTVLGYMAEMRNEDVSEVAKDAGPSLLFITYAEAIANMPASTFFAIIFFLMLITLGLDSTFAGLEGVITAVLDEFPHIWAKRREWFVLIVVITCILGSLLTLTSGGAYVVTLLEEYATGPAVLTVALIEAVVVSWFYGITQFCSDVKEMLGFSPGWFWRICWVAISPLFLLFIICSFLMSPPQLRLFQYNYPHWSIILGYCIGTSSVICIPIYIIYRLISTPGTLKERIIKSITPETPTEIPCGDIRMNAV
Chain of human serotonin reuptake transporter (P31645 whole entry): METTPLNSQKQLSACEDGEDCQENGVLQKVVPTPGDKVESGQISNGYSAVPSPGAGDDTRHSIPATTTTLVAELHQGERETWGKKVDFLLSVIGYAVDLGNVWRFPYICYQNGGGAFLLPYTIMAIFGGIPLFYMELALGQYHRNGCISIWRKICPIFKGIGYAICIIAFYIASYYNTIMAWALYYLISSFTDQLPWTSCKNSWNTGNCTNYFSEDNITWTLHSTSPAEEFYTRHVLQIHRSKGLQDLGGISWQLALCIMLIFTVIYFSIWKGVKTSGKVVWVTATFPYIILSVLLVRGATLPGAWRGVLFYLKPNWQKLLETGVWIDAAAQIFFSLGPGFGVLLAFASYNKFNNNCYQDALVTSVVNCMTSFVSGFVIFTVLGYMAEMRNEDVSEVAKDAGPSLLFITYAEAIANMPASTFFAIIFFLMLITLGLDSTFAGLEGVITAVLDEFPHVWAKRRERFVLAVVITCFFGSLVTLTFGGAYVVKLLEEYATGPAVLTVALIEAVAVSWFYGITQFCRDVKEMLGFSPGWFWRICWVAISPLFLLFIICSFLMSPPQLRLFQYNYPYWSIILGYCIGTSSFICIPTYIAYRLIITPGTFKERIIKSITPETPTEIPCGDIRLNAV
Chain of Norepinephrine Transporter (NET) Sites in Mouse Brain (O55192 whole entry): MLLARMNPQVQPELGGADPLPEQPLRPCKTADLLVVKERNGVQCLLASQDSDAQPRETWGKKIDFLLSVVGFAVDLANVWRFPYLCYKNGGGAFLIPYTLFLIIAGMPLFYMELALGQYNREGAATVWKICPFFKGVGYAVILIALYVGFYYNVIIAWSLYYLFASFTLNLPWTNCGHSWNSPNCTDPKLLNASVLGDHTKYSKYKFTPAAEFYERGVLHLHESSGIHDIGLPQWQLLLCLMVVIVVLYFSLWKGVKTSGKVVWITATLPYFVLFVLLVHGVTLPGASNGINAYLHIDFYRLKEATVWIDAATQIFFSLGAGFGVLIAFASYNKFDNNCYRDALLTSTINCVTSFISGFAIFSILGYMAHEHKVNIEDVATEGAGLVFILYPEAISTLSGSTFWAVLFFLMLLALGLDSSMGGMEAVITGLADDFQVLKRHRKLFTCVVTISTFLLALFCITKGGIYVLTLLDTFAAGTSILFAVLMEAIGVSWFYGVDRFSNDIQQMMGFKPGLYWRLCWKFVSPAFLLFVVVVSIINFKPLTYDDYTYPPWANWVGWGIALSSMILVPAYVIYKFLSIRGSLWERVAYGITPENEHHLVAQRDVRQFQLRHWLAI
T3 sequence (Q01959 whole entry): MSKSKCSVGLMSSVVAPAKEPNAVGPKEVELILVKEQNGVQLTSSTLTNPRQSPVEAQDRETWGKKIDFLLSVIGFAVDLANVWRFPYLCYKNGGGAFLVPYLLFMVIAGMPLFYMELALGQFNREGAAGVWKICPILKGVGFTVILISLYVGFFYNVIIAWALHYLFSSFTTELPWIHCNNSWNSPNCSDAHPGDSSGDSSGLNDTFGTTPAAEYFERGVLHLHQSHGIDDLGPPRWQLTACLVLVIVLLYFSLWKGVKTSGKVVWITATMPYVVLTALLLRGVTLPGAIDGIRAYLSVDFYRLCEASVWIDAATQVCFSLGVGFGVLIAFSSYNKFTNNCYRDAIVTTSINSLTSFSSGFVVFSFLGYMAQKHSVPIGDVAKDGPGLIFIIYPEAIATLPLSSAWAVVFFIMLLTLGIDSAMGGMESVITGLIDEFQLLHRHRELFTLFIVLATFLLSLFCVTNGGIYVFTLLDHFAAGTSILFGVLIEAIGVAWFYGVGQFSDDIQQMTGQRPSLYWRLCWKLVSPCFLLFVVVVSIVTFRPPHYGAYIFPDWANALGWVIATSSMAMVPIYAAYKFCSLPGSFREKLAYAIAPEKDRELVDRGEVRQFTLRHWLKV

CNCC1(c2ccc(Cl)c(Cl)c2)CCC(C)(O)CC1 (stereo not shown) [Compound 276, 4-(3,4-dichlorophenyl)-1-methyl-4-((methylamino)methyl)cyclohexanol]
% Transporter Occupancy, NET ([1]; 1 mg/kg): -4% | Mean Specific Binding (dpm) ± S.E.M., NET ([1]; 1 mg/kg): 1602 ± 51 dpm | % Transporter Occupancy, NET ([1]; 3 mg/kg): -6% | Mean Specific Binding (dpm) ± S.E.M., NET ([1]; 3 mg/kg): 1631 ± 92 dpm | % Transporter Occupancy, NET ([1]; 10 mg/kg): -1% | Mean Specific Binding (dpm) ± S.E.M., NET ([1]; 10 mg/kg): 1553 ± 27 dpm | % Transporter Occupancy, NET ([1]; 30 mg/kg): 26% | Mean Specific Binding (dpm) ± S.E.M., NET ([1]; 30 mg/kg): 1138 ± 59 dpm | Mouse Locomotor Activity Total Distance Traveled ± S.E.M. ([2]; 3 mg/kg): 625.9 ± 47.5 | Mouse Locomotor Activity Total Distance Traveled ± S.E.M. ([2]; 10 mg/kg): 382.4 ± 63.4 | Mouse Locomotor Activity Total Distance Traveled ± S.E.M. ([2]; 30 mg/kg): 607.8 ± 57.8 | IC50 [3, 7]: 210 nM | % Transporter Occupancy, DAT ([4]; 1 mg/kg): -21% | % Transporter Occupancy, DAT ([4]; 3 mg/kg): -9% | Mean Specific Binding (dpm) ± S.E.M., DAT ([4]; 3 mg/kg): 16312 ± 2396 dpm | % Transporter Occupancy, DAT ([4]; 10 mg/kg): -6% | Mean Specific Binding (dpm) ± S.E.M., DAT ([4]; 10 mg/kg): 15879 ± 2265 dpm | % Transporter Occupancy, DAT ([4]; 30 mg/kg): 31% | Mean Specific Binding (dpm) ± S.E.M., DAT ([4]; 30 mg/kg): 10397 ± 931 dpm | % Transporter Occupancy, SERT ([5]; 1 mg/kg): 12% | Mean Specific Binding (dpm) ± S.E.M., SERT ([5]; 1 mg/kg): 3743 ± 199 dpm | % Transporter Occupancy, SERT ([5]; 3 mg/kg): 14% | Mean Specific Binding (dpm) ± S.E.M., SERT ([5]; 3 mg/kg): 3685 ± 292 dpm | % Transporter Occupancy, SERT ([5]; 10 mg/kg): 28% | Mean Specific Binding (dpm) ± S.E.M., SERT ([5]; 10 mg/kg): 3092 ± 207 dpm | % Transporter Occupancy, SERT ([5]; 30 mg/kg): 64% | Mean Specific Binding (dpm) ± S.E.M., SERT ([5]; 30 mg/kg): 1558 ± 169 dpm

NCC1(c2ccc3ccccc3c2)CCC(F)CC1 (stereo not shown) [Compound 212, (4-fluoro-1-(naphthalen-2-yl)cyclohexyl)methanamine]
IC50 [3, 7]: 91 nM | IC50 [6, 8]: 75 nM

CCC1(O)CCC(CN(C)C)(c2ccc(Cl)c(Cl)c2)CC1 (stereo not shown) [Compound 280, 4-(3,4-dichlorophenyl)-4-((dimethylamino)methyl)-1-ethylcyclohexanol]
IC50 [3, 7]: 7 nM | IC50 [6, 8]: 242 nM

NCC1(c2ccc3ccccc3c2)CCC(O)(CF)CC1 (stereo not shown) [Compound 217, 4-(aminomethyl)-1-(fluoromethyl)-4-(naphthalen-2-yl)cyclohexanol]
IC50 [3, 7]: 47 nM | IC50 [6, 8]: 1970 nM

COC1CCCC(CN)(c2ccc(Cl)c(Cl)c2)C1 (single isomer, unassigned) [Compound 194]
IC50 [3, 7]: 330 nM | IC50 [6, 8]: 2370 nM

NCC1(c2ccc(Cl)c(Cl)c2)CCCC(F)(F)C1 (stereo not shown) [Compound 204, (1-(3,4-dichlorophenyl)-3,3-difluorocyclohexyl)-methanamine]
IC50 [3, 9]: 2250 nM | IC50 [6, 8]: 296 nM

CC(N)C1(c2ccc(-c3ccoc3)cc2)CCCCC1 (stereo not shown) [Compound 20, 1-(1-(4-(furan-3-yl)phenyl)cyclohexyl)ethanamine]
IC50 [3, 7]: 24 nM | IC50 [6, 8]: 275 nM

NCC1(c2ccc3ccccc3c2)CCC(F)(F)CC1 [Compound 221, (4,4-difluoro-1-(naphthalen-2-yl)cyclohexyl)methanamine]
IC50 [3, 7]: 61 nM | IC50 [6, 8]: 182 nM

CNCC1(c2ccc3ccccc3c2)CC=CCC1 (racemic) [Compound 292, N-methyl-1-(1-(naphthalen-2-yl)cyclohex-3-enyl)methanamine]
IC50 [3, 10]: 360 nM | IC50 ([6]; Human IC50 (nM) hDAT): 89 nM

CC(N(C)C)C1(c2cccc3ccccc23)CCCCC1 (single isomer, unassigned) [60 E1, N,N-dimethyl-1-(1-(naphthalen-1-yl)cyclohexyl)ethanamine]
IC50 [3, 7]: 184 nM | IC50 [6, 8]: 748 nM

COC1CCC(CN)(c2ccc(Cl)c(Cl)c2)CC1 (stereo not shown) [Compound 255, (1-(3,4-dichlorophenyl)-4-methoxycyclohexyl)methanamine]
IC50 [3, 7]: 1420 nM | IC50 [6, 8]: 170 nM

CNCC1(c2ccc(Cl)c(Cl)c2)CCC(OC)CC1 (stereo not shown) [Compound 259, 1-(1-(3,4-dichlorophenyl)-4-methoxycyclohexyl)-N-methylmethanamine]
IC50 [3, 7]: 5890 nM | IC50 [6, 8]: 665 nM

NCC1(c2ccc(Cl)c(Cl)c2)CCC(F)(F)CC1 [Compound 267, (1-(3,4-dichlorophenyl)-4,4-difluorocyclohexyl)methanamine]
IC50 [3, 7]: 1290 nM | IC50 [6, 8]: 147 nM

CNCC1(c2ccc(F)c3ccccc23)CCCCC1 [Compound 69, 1-(1-(4-fluoronaphthalen-1-yl)cyclohexyl)-N-methylmethanamine]
IC50 [3, 7]: 930 nM | IC50 [6, 8]: 605 nM

CNCC1(c2ccc(F)cc2)CCCCC1 [Compound 90, 1-(1-(4-fluorophenyl)cyclohexyl)-N-methylmethanamine]
IC50 [3, 9]: 839 nM | IC50 [6, 8]: 3360 nM

CCC(N(C)C)C1(c2ccc(Cl)c(Cl)c2)CCCCC1 (single isomer, unassigned) [61 E2, 1-(1-(3,4-dichlorophenyl)cyclohexyl)-N,N-dimethylpropan-1-amine]
IC50 [3, 9]: 9440 nM | IC50 [6, 8]: 116 nM

CN(C)CC1(c2ccc3c(c2)OCO3)CCCCC1 [Compound 102, 1-(1-(benzo[d][1,3]dioxol-5-yl)cyclohexyl)-N,N-dimethylmethanamine]
IC50 [3, 9]: 195 nM | IC50 [6, 8]: 420 nM

CNC(C)C1(c2ccc(OC(F)(F)F)cc2)CCCCC1 (single isomer, unassigned) [64 E1, N-methyl-1-(1-(4-(trifluoromethoxy)phenyl)cyclohexyl)ethanamine]
IC50 [3, 7]: 58 nM | IC50 ([6]; Human IC50 (nM) hDAT): > 10000 nM

CC1(O)CCCC(CN)(c2ccc(Cl)c(Cl)c2)C1 (single isomer, unassigned) [193 E1, 3-Aminomethyl-3-(3,4-dichloro-phenyl)-1-methyl-cyclohexanol]
IC50 [3, 7]: 416 nM | IC50 [6, 8]: 266 nM

CNCC1(c2ccc(C(F)(F)F)cc2)CCCCC1 [Compound 100, N-methyl-1-(1-(4-(trifluoromethyl)phenyl)-cyclohexyl)methanamine]
IC50 [3, 9]: 1500 nM | IC50 [6, 8]: 3410 nM

CNCC1(c2ccc(Cl)cc2Cl)CCCCC1 [Compound 65, 1-(1-(2,4-dichlorophenyl)cyclohexyl)-N-methylmethanamine]
IC50 [3, 9]: 1620 nM | IC50 [6, 8]: 1940 nM

CC1(O)CCC(CN)(c2ccc3c(c2)OCO3)CC1 (stereo not shown) [Compound 216, 4-(aminomethyl)-4-(benzo[d][1,3]dioxol-5-yl)-1-methylcyclohexanol]
IC50 [3, 7]: > 10000 nM | IC50 [6, 8]: > 10000 nM

CC1CCCN(CC2(c3ccc(Cl)c(Cl)c3)CCCCC2)C1 (racemic) [Compound 114, 1-((1-(3,4-dichlorophenyl)cyclohexyl)methyl)-3-methylpiperidine]
IC50 ([3]; Human IC50 (nM) hSERT): > 10000 nM | IC50 [6, 8]: 16 nM

CN(C)CC1(c2ccc(OC(F)(F)F)cc2)CCC(C)(O)CC1 (stereo not shown) [Compound 248, 4-((dimethylamino)methyl)-1-methyl-4-(4-(trifluoromethoxy)phenyl)cyclohexanol]
IC50 [3, 7]: 159 nM | IC50 [6, 8]: 7250 nM

CN1Cc2c(ccc3c2OCO3)C2(CCC(C)(O)CC2)C1 (single isomer, unassigned) [Compound 295, 4',8-dimethyl-8,9-dihydro-7H-spiro [[1,3]dioxolo[4,5-h]isoquinoline-6,1'-cyclohexan]-4'-ol]
IC50 [3, 7]: > 10000 nM | IC50 [6, 8]: > 10000 nM

CNCC1(c2ccc3ccccc3c2)CCC(O)(CF)CC1 (stereo not shown) [Compound 243, 1-(fluoromethyl)-4-((methylamino)methyl)-4-(naphthalen-2-yl)cyclohexanol]
IC50 [3, 7]: 26 nM | IC50 [6, 8]: 851 nM

CCCC1(O)CCC(CN)(c2ccc(Cl)c(Cl)c2)CC1 (stereo not shown) [Compound 284, 4-(aminomethyl)-4-(3,4-dichlorophenyl)-1-propylcyclohexanol]
IC50 [3, 7]: 7900 nM | IC50 [6, 8]: 2460 nM

CCCC1(O)CCC(CN(C)C)(c2ccc(Cl)c(Cl)c2)CC1 (stereo not shown) [Compound 286, 4-(3,4-dichlorophenyl)-4-((dimethylamino)methyl)-1-propylcyclohexanol]
IC50 [3, 10]: 46 nM | IC50 [6, 8]: 198 nM

CC(N)C1(c2ccc(-c3ccoc3)cc2)CCCCC1 (single isomer, unassigned) [20 E2, 1-(1-(4-(furan-3-yl)phenyl)cyclohexyl)ethanamine]
IC50 [3, 7]: 60 nM | IC50 [6, 8]: 437 nM

CNCC1(c2ccc3cc(F)ccc3c2)CCCCC1 [Compound 67, 1-(1-(6-fluoronaphthalen-2-yl)cyclohexyl)-N-methylmethanamine]
IC50 [3, 9]: 230 nM | IC50 [6, 8]: 1760 nM
